# In US20240124460A1, “METHODS AND COMPOSITIONS FOR TARGETED PROTEIN DEGRADATION” (Ranok Therapeutics (Hangzhou) Co. Ltd., priority 2020, published 2024):
# Where two headings read alike, the source gives them in different places.
# Assays:
# [1] = tested on: MV-4-11 human acute myeloid leukemia; assay: MV-4-11 CCK-8 proliferation assay; type: cell-based; conditions: MV-4-11 cells, 72 hr
# Protocol: (§1) The following cancer cell lines were employed: A549 human lung carcinoma (ATCC, #CCL-185); BT-474 human breast carcinoma (ATCC, #HTB-20); MDA-MB-231 human breast adenocarcinoma (ATCC, #CRM−HTB-26); MDA-MB-468 human breast adenocarcinoma (ATCC, #HTB-132); MV-4-11 human acute myeloid leukemia (ATCC, #CRL-9591); and U-87 MG human glioblastoma (ATCC, #HTB-14). Cell lines were cultured essentially according to ATCC recommendations.
# (§2) 3-fold serial dilutions of each test compound were prepared ranging from 20 μM to 1.02 nM.
# (§3) % Inhibition=100−(D−B)/(S−B)*100%. • S: Absorbance of cells treated with DMSO • D: Absorbance of compound-treated cells • B: Absorbance of medium with DMSO without cells
# [2] = tested on: U-87 MG human glioblastoma; assay: U87 MG CCK-8 proliferation assay; type: cell-based; conditions: U-87 MG cells, read-out: U87MG CCK-8
# Protocol: as §1, §2, §3
"EC50 ([1]; Homo sapiens, MV4-11) [nM]","EC50 ([2]; Homo sapiens, U-87 MG, 72 h) [nM]",SMILES,further results
> 1000,,"CCOc1cc(N2CCC(C(=O)N3CCC(CN4CCC(Oc5ccc(-c6ccc(NC(=O)c7ccc(OC)c(-c8cccc(OC)c8)c7)cc6)c(OCCCN(C)C)c5)CC4)CC3)CC2)ccc1Nc1ncc2c(n1)N(C)c1ccccc1C(=O)N2C [Compound 153, N-(4′-((1-((1-(1-(4-((5,11-dimethyl-6-oxo-6,11-dihydro-5H-benzo[e]pyrimido[5,4-b][1,4]diazepin-2-yl)amino)-3-ethoxyphenyl)piperidine-4-carbonyl)piperidin-4-yl)methyl)piperidin-4-yl)oxy)-2′-(3-(dimethylamino)propoxy)-[1,1′-biphenyl]-4-yl)-3′,6-dimethoxy-[1,1′-biphenyl]-3-carboxamide]",
< 100,< 100,"CCOc1cc(N2CCC(CN3CCN(Cc4ccc(-n5c(C(=O)NCC(F)(F)F)nnc5-c5cc(C(C)C)c(O)cc5O)cc4)CC3)CC2)ccc1Nc1ncc2c(n1)N(S(C)(=O)=O)c1ccccc1C(=O)N2C [Compound 178, 5-(2,4-dihydroxy-5-isopropylphenyl)-4-(4-((4-((1-(3-ethoxy-4-((5-methyl-11-(methylsulfonyl)-6-oxo-6,11-dihydro-5H-benzo[e]pyrimido[5,4-b][1,4]diazepin-2-yl)amino)phenyl)piperidin-4-yl)methyl)piperazin-1-yl)methyl)phenyl)-N-(2,2,2-trifluoroethyl)-4H-1,2,4-triazole-3-carboxamide]",
,,"CCOc1cc(N2CCC(C(=O)N3CCC(CN4CCN(Cc5ccc(-n6c(C(=O)N[C@@H](C)C(F)(F)F)nnc6-c6cc(CC)c(O)cc6O)cc5)CC4)CC3)CC2)ccc1Nc1ncc2c(n1)N(S(C)(=O)=O)c1ccccc1C(=O)N2C [Compound 177, (S)-4-(4-((4-((1-(1-(3-ethoxy-4-((5-methyl-11-(methylsulfonyl)-6-oxo-6,11-dihydro-5H-benzo[e]pyrimido[5,4-b][1,4]diazepin-2-yl)amino)phenyl)piperidine-4-carbonyl)piperidin-4-yl)methyl)piperazin-1-yl)methyl)phenyl)-5-(5-ethyl-2,4-dihydroxyphenyl)-N-(1,1,1-trifluoropropan-2-yl)-4H-1,2,4-triazole-3-carboxamide]",EC50 [1]: < 100 nM
< 100,< 100,"CCOc1cc(CN2CCC(CN3CCN(Cc4ccc(-n5c(C(=O)NCC(F)(F)F)nnc5-c5cc(C(C)C)c(O)cc5O)cc4)CC3)CC2)ccc1Nc1ncc2c(n1)N(S(C)(=O)=O)c1ccccc1C(=O)N2C [Compound 191, 5-(2,4-dihydroxy-5-isopropylphenyl)-4-(4-((4-((1-(3-ethoxy-4-((5-methyl-11-(methylsulfonyl)-6-oxo-6,11-dihydro-5H-benzo[e]pyrimido[5,4-b][1,4]diazepin-2-yl)amino)benzyl)piperidin-4-yl)methyl)piperazin-1-yl)methyl)phenyl)-N-(2,2,2-trifluoroethyl)-4H-1,2,4-triazole-3-carboxamide]",
> 1000,,"CCOc1cc(N2CCC(C(=O)N3CCC(CN4CCC(Oc5ccc(-c6ccc(NC(=O)c7ccc(OC)c(-c8cccc(OC)c8)c7)cc6)c(OCCCN(C)C)c5)CC4)CC3)CC2)ccc1Nc1ncc2c(n1)N(S(C)(=O)=O)c1ccccc1C(=O)N2C [Compound 155, N-(2′-(3-(dimethylamino)propoxy)-4′-((1-((1-(1-(3-ethoxy-4-((5-methyl-11-(methylsulfonyl)-6-oxo-6,11-dihydro-5H-benzo[e]pyrimido[5,4-b][1,4]diazepin-2-yl)amino)phenyl)piperidine-4-carbonyl)piperidin-4-yl)methyl)piperidin-4-yl)oxy)-[1,1′-biphenyl]-4-yl)-3′,6-dimethoxy-[1,1′-biphenyl]-3-carboxamide]",
< 100,100 to 1000,"CCCc1cc(-c2nnc(O)n2-c2ccc(CN3CCN(C(=O)C4CCN(c5ccc(Nc6ncc7c(n6)N(C)c6ccccc6C(=O)N7C)c(OCC)c5)CC4)CC3)cc2)c(O)cc1O [Compound 050, 2-((4-(4-(4-(4-(3-(2,4-dihydroxy-5-propylphenyl)-5-hydroxy-4H-1,2,4-triazol-4-yl)benzyl)piperazine-1-carbonyl)piperidin-1-yl)-2-ethoxyphenyl)amino)-5,11-dimethyl-5,11-dihydro-6H-benzo[e]pyrimido[5,4-b][1,4]diazepin-6-one]",
> 1000,,"CCOc1cc(N2CCC(C(=O)N3CCC(CN4CCC(Oc5ccc(-c6ccc(NC(=O)c7ccc(OC)c(-c8cccc(OC)c8)c7)cc6)cc5)CC4)CC3)CC2)ccc1Nc1ncc2c(n1)N(C)c1ccccc1C(=O)N2C [Compound 154, N-(4′-((1-((1-(1-(4-((5,11-dimethyl-6-oxo-6,11-dihydro-5H-benzo[e]pyrimido[5,4-b][1,4]diazepin-2-yl)amino)-3-ethoxyphenyl)piperidine-4-carbonyl)piperidin-4-yl)methyl)piperidin-4-yl)oxy)-[1,1′-biphenyl]-4-yl)-3′,6-dimethoxy-[1,1′-biphenyl]-3-carboxamide]",
> 1000,,"CCOc1cc(N2CCC(C(=O)NCCCOc3ccc(-c4ccc(NC(=O)c5ccc(OC)c(-c6cccc(OC)c6)c5)cc4)c(OCCCN(C)C)c3)CC2)ccc1Nc1ncc2c(n1)N(S(C)(=O)=O)c1ccccc1C(=O)N2C [Compound 157, N-(3-((4′-(3′,6-dimethoxy-[1,1′-biphenyl]-3-carboxamido)-2-(3-(dimethylamino)propoxy)-[1,1′-biphenyl]-4-yl)oxy)propyl)-1-(3-ethoxy-4-((5-methyl-11-(methylsulfonyl)-6-oxo-6,11-dihydro-5H-benzo[e]pyrimido[5,4-b][1,4]diazepin-2-yl)amino)phenyl)piperidine-4-carboxamide]",
> 1000,,"CCOc1cc(N2CCC(C(=O)N3CCC(CN4CCC(Oc5ccc(-c6ccc(NC(=O)c7ccc(OC)c(-c8cccc(OC)c8)c7)cc6)cc5)CC4)CC3)CC2)ccc1Nc1ncc2c(n1)N(S(C)(=O)=O)c1ccccc1C(=O)N2C [Compound 156, N-(4′-((1-((1-(1-(3-ethoxy-4-((5-methyl-11-(methylsulfonyl)-6-oxo-6,11-dihydro-5H-benzo[e]pyrimido[5,4-b][1,4]diazepin-2-yl)amino)phenyl)piperidine-4-carbonyl)piperidin-4-yl)methyl)piperidin-4-yl)oxy)-[1,1′-biphenyl]-4-yl)-3′,6-dimethoxy-[1,1′-biphenyl]-3-carboxamide]",
> 1000,,"CCOc1cc(N2CCC(C(=O)N3CCC(COc4ccc(-c5ccc(NC(=O)c6ccc(OC)c(-c7cccc(OC)c7)c6)cc5)c(OCCCN(C)C)c4)CC3)CC2)ccc1Nc1ncc2c(n1)N(S(C)(=O)=O)c1ccccc1C(=O)N2C [Compound 158, N-(2′-(3-(dimethylamino)propoxy)-4′-((1-(1-(3-ethoxy-4-((5-methyl-11-(methylsulfonyl)-6-oxo-6,11-dihydro-5H-benzo[e]pyrimido[5,4-b][1,4]diazepin-2-yl)amino)phenyl)piperidine-4-carbonyl)piperidin-4-yl)methoxy)-[1,1′-biphenyl]-4-yl)-3′,6-dimethoxy-[1,1′-biphenyl]-3-carboxamide]",
,> 1000,"CCOc1cc(N2CCC(C(=O)N3CCC(COc4ccc(-c5ccc(NC(=O)c6ccc(OC)c(-c7cccc(OC)c7)c6)cc5)c(OCCCN(C)C)c4)CC3)CC2)ccc1Nc1ncc2c(n1)N(C)c1ccccc1C(=O)N2C [Compound 151, N-(4′-((1-(1-(4-((5,11-dimethyl-6-oxo-6,11-dihydro-5H-benzo[e]pyrimido[5,4-b][1,4]diazepin-2-yl)amino)-3-ethoxyphenyl)piperidine-4-carbonyl)piperidin-4-yl)methoxy)-2′-(3-(dimethylamino)propoxy)-[1,1′-biphenyl]-4-yl)-3′,6-dimethoxy-[1,1′-biphenyl]-3-carboxamide]",
,100 to 1000,"CCOc1cc(N2CCC(C(=O)N3CCC(N4CCN(Cc5ccc(-n6c(O)nnc6-c6cc(C(C)C)c(O)cc6O)cc5F)CC4)CC3)CC2)ccc1Nc1ncc2c(n1)N(C)c1ccccc1C(=O)N2C [Compound 033, 2-((4-(4-(4-(4-(4-(3-(2,4-dihydroxy-5-isopropylphenyl)-5-hydroxy-4H-1,2,4-triazol-4-yl)-2-fluorobenzyl)piperazin-1-yl)piperidine-1-carbonyl)piperidin-1-yl)-2-ethoxyphenyl)amino)-5,11-dimethyl-5,11-dihydro-6H-benzo[e]pyrimido[5,4-b][1,4]diazepin-6-one]",
,,"CCOc1cc(N2CCC(C(=O)N3CCC(CN4CCN(Cc5ccc(-n6c(C(=O)N[C@H](C)C(F)(F)F)nnc6-c6cc(CC)c(O)cc6O)cc5)CC4)CC3)CC2)ccc1Nc1ncc2c(n1)N(S(C)(=O)=O)c1ccccc1C(=O)N2C [Compound 176, (R)-4-(4-((4-((1-(1-(3-ethoxy-4-((5-methyl-11-(methylsulfonyl)-6-oxo-6,11-dihydro-5H-benzo[e]pyrimido[5,4-b][1,4]diazepin-2-yl)amino)phenyl)piperidine-4-carbonyl)piperidin-4-yl)methyl)piperazin-1-yl)methyl)phenyl)-5-(5-ethyl-2,4-dihydroxyphenyl)-N-(1,1,1-trifluoropropan-2-yl)-4H-1,2,4-triazole-3-carboxamide]",EC50 ([2]; 72 hr): 100 to 1000 nM

SMILES,"EC50 ([1]; Homo sapiens, MV4-11) [nM]","EC50 ([2]; Homo sapiens, U-87 MG, 72 h) [nM]",further results
"CCOc1cc(N2CCC(C(=O)N3CCN(Cc4ccc(-n5c(O)nnc5-c5cc(C(C)C)c(OP(=O)(O)O)cc5O)cc4)CC3)CC2)ccc1Nc1ncc2c(n1)N(C)c1ccccc1C(=O)N2C [Compound 180, 4-(4-(4-((4-(1-(4-((5,11-dimethyl-6-oxo-6,11-dihydro-5H-benzo[e]pyrimido[5,4-b][1,4]diazepin-2-yl)amino)-3-ethoxyphenyl)piperidine-4-carbonyl)piperazin-1-yl)methyl)phenyl)-5-hydroxy-4H-1,2,4-triazol-3-yl)-5-hydroxy-2-isopropylphenyl dihydrogen phosphate]",< 100,,"EC50 ([2]; Homo sapiens, 72 hr): < 100 nM"
